Results as given in US6875743B1, “Cell adhesion inhibitors” (Biogen, Inc., priority 1996, dated 2005).
Numbered stars: 1 amine (or outer) side, 2 acyl side, 3 side chain; on linkers, the order of the positions; unused ones are H or OH. Square brackets hold non-standard residues; d marks the D form. Peptide text beside a SMILES is read from it. * marks the point of attachment. Hydrocinnamoyl = O=C(CCc1ccccc1)*; Quinaldoyl = O=C(c1ccc2ccccc2n1)*; X1 = O=C(Cc1ccc(N[*:1])cc1)[*:2]; NH(2-Me-phenyl) = Cc1ccccc1N*; NMeL = CN[CH](CC(C)C)C(=O)O; PhAc = O=C(Cc1ccccc1)*; Boc = CC(C)(C)OC(=O)*; CO = O=C([*:1])[*:2]; Bz = O=C(c1ccccc1)*; NHPh = c1ccc(N*)cc1; Ahx = NCCCCCC(=O)O; Bn = c1ccc(C*)cc1

Molecular target: T1, VLA4 (Homo sapiens, UniProt P05556+P13612)
T1 construct: endogenous in cells; host or cells: Ramos cells
Test: Inhibition of VLA4-dependent adhesion to BSA-CS1
Assay type: cell-based
Settings: binding of BCECF-labelled Ramos cells to BSA-CS1 coated wells, 2 mM MnCl2; read-out: IC50
Source text: For example, the cell adhesion inhibitory activity of these compounds may be measured by determining the concentration of inhibitor required to block the binding of VLA-4-expressing cells to fibronectin- or CS1-coated plates. In this assay microtiter wells are coated with either fibronectin (containing the CS-1 sequence) or CS-1. If CS-1 is used, it must be conjugated to a carrier protein, such as bovine serum albumin, in order to bind to the wells. Once the wells are coated, varying concentrations of the test compound are then added together with appropriately labelled, VLA-4-expressing cells. Alternatively, the test compound may be added first and allowed to incubate with the coated wells prior to the addition of the cells. The cells are allowed to incubate in the wells for at least 30 minutes. Following incubation, the wells are emptied and washed. Inhibition of binding is measured by quantitating the fluorescence or radioactivity bound to the plate for each of the various concentrations of test compound, as well as for controls containing no test compound.
VLA-4-expressing cells that may be utilized in this assay include Ramos cells, Jurkat cells, A375 melanoma cells, as well as human peripheral blood lymophocytes (PBLs). The cells used in this assay may be fluorescently or radioactively labelled.
This assay was used to assess the potency of VLA4-directed inhibitory compounds of this invention.
We dissolved BSA-SMCC (Pierce Chemical, Rockford, Ill.; Catalog #77115) in H2O at a concentration of 10 mg/mL. [SEQ ID NO:4]: […](“Cys-Tyr-CS1 peptide”), which we synthesized by conventional solid phase chemistry and purified by HPLC, was dissolved in 10 mM HEPES pH 5, 50 mM NaCl and 0.1 mM EDTA also at a concentration of 10 mg/mL. We then mixed 500 μL of BSA-SMCC, 250 μL of Cys-Tyr-CS1 peptide and 75 μL of 1 mM HEPES pH 7.5 and allowed the conjugation reaction to proceed for 30 minutes. We stopped the reaction by adding 1 μL of beta-mercaptoethanol. Samples were analyzed for cross-linking by SDS-PAGE.
We coated the wells of a Linbro titertek polystyrene 96-well flat bottom plate (Flow Laboratories, Maclean, Va.; catalog #76-231-05) with 100 μL of the above-described BSA-CS1 solution diluted to 1 μg/mL in 0.05 M NaHCO3 (15 mM NaHCO3, 35 mM Na2CO3) pH 9.2. Some wells were not coated with CS1 in order to assess non-specific cell binding (NSB). The plate was then incubated overnight at 4° C.
Following this incubation, the contents of the wells were removed by inverting and blotting the plate. All of the wells were then blocked with 100 μL of 1% BSA in PBS, 0.02% NaN3, for a minimum of one hour at room temperature.
Ramos cells are grown, maintained and labelled in RPMI 1640 culture medium containing 1% BSA. Just prior to running the assay, we added 2′,7′-bis-(2-carboxyethyl)-5 (and -6) carboxyfluorescein acetoxymethyl ester (“BCECF-AM”; Molecular Probes Inc., Eugene, Oreg.; catalog #B-1150) to a final concentration of 2 μM to a culture of Ramos cells (4×10^6 cells/mL). We incubated the cells for 20 minutes at 37° C.
Following labelling, the cells were washed twice in assay buffer (24 mM TRIS, 137 mM NaCl, 2.7 mM KCl, pH 7.4, containing 0.1% BSA and 2 mM glucose) to remove any cations originating from the culture medium. The cells were then resuspended in assay buffer to 4×10^6 cells/mL and 2 mM MnCl2 was added to upregulate VLA4 on the surface of the cells.
Immediately prior to running the assay, we removed the BSA blocking solution from the 96-well plates and washed the wells with 100 μL of assay buffer. We then added to each well 25 μL of test cell adhesion inhibitory compound at 2× the final concentration and 25 μL of the labelled Ramos cells. […] Each concentration of compound was tested in triplicate. The compound and cells are allowed to incubate for 30 minutes at room temperature.

T1 sequence (P13612 34-1032): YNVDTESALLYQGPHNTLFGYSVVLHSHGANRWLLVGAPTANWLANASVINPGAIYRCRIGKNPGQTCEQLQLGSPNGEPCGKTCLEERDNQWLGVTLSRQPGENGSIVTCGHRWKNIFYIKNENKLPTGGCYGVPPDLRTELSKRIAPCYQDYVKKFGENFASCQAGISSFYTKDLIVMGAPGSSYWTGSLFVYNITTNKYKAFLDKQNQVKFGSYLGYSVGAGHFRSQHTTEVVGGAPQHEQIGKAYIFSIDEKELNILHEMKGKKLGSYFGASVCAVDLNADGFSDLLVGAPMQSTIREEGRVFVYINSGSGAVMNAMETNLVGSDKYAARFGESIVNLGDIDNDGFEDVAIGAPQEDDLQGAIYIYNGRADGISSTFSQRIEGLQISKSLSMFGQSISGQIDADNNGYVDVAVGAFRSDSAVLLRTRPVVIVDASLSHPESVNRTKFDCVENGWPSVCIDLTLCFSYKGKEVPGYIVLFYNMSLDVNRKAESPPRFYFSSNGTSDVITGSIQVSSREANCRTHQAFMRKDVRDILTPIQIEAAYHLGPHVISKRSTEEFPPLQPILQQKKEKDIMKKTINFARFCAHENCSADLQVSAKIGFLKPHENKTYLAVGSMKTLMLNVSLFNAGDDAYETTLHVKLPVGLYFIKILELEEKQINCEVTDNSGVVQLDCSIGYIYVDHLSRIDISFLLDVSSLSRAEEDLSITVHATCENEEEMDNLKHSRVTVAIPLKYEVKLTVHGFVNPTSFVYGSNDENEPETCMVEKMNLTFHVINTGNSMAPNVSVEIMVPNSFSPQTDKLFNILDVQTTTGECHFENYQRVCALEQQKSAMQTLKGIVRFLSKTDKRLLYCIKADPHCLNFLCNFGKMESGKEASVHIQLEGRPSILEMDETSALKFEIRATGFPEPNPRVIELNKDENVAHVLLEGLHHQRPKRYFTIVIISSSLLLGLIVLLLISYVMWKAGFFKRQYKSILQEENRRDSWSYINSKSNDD
T1 sequence (P05556 21-798): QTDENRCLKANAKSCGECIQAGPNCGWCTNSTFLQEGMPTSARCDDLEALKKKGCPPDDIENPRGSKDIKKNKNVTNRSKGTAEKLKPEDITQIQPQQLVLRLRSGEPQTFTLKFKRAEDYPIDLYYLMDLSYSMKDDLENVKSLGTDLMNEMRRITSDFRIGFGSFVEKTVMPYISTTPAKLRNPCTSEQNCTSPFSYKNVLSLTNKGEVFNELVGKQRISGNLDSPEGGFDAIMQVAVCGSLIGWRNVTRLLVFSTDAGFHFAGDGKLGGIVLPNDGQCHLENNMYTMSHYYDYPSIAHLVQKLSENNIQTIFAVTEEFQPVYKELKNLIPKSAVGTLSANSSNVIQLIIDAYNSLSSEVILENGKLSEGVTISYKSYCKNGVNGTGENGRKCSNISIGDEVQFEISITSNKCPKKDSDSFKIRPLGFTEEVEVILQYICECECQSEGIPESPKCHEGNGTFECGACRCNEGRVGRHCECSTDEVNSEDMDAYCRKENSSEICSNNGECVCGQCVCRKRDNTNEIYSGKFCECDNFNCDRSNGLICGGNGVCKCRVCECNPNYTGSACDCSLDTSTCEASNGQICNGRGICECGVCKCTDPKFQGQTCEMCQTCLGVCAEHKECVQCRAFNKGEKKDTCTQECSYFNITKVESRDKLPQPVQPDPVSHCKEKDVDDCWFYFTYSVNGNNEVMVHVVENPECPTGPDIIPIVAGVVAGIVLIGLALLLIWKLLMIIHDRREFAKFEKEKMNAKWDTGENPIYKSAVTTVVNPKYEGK

Row | IC50 [nM] | SMILES
1 | > 10000 | CC(C)C[C@H](NC(=O)[C@H](Cc1ccccc1)NC(=O)c1ccccc1)C(=O)N[C@@H](CC(=O)O)C(=O)N[C@H](C(=O)O)C(C)C [Compound 153] (Bz-FLDV-OH)
2 | > 10000 | COC(=O)C(CCSC)NC(=O)C(NC(=O)C(CC(=O)O)NC(=O)C(CC(C)C)NC(=O)OC(C)(C)C)C(C)C (stereo not drawn) [Compound 167] (Boc-LDVM-OMe; configuration not given here)
3 | > 10000 | CC(C)C[C@H](NC(=O)c1ccc2ccccc2n1)C(=O)N[C@@H](CC(=O)O)C(=O)N[C@H](C(N)=O)C(C)C [Compound 178]
4 | > 10000 | CNC(=O)C(NC(=O)C(CC(=O)O)NC(=O)C(CC(C)C)N(C)C(=O)CCc1ccccc1)C(C)C (stereo not drawn) [Compound 184] (Hydrocinnamoyl-[NMeL]-Asp-Val-NHMe; configuration not given here)
5 | > 10000 | CNC(=O)C(C)(C)NC(=O)[C@H](CC(=O)O)NC(=O)[C@H](CC(C)C)NC(=O)c1ccc2ccccc2n1 [Compound 185]
6 | > 10000 | CSCC[C@H](NC(=O)[C@@H](NC(=O)[C@H](CC(=O)O)NC(=O)[C@H](CC(C)C)NC(=O)c1ccc2ccccc2n1)C(C)C)C(=O)O [Compound 186] (Quinaldoyl-LDVM-OH)
7 | 50 to 10000 | COC(=O)[C@@H](NC(=O)[C@H](CC(=O)O)NC(=O)[C@H](CC(C)C)NC(=O)Cc1ccccc1)[C@@H](C)OCc1ccccc1 [Compound 192] (PhAc-Leu-Asp-Thr(Bn)-OMe)
8 | 50 to 10000 | CC(C)CC(NC(=O)Cc1ccc(NC(=O)Nc2ccccc2)cc1)C(=O)NC(CC(=O)O)C(=O)NC(C(=O)N1CCCC1C(N)=O)C(C)C (stereo not drawn) [Compound 199] ({NHPh-CO}-[X1]LDVP-NH2; configuration not given here)
9 | 50 to 10000 | CC(C)CC(NC(=O)Cc1ccc(NC(=O)Nc2ccccc2)cc1)C(=O)NC(CC(=O)O)C(=O)NC(C(=O)N1CCCC1C(N)=O)C(C)C (stereo not drawn) [Compound 201] ({NHPh-CO}-[X1]LDVP-NH2; configuration not given here)
10 | 50 to 10000 | Cc1ccccc1NC(=O)Nc1ccc(CC(=O)N[C@@H](CCCCNC(=O)CCCCCN)C(=O)N[C@@H](CC(=O)O)C(=O)N[C@H](C(=O)N2CCC[C@H]2C(=O)O)C(C)C)cc1 [Compound 202] ({NH(2-Me-phenyl)-CO}-[X1]K(Ahx)DVP-OH)
11 | < 50 | CC(C)C[C@H](NC(=O)Cc1ccc(NC(=O)Nc2ccccc2)cc1)C(=O)N[C@@H](CC(=O)O)C(=O)N[C@H](C(=O)O)C(C)C [Compound 203]
12 | 50 to 10000 | CNC(=O)[C@@H](NC(=O)[C@H](CC(=O)O)NC(=O)[C@H](CC(C)C)NC(=O)Cc1ccc(NC(=O)Nc2ccccc2)cc1)C(C)C [Compound 204]
13 | 50 to 10000 | CC(C)CNC(=O)[C@@H](NC(=O)[C@H](CC(=O)O)NC(=O)[C@H](CC(C)C)NC(=O)Cc1ccc(NC(=O)Nc2ccccc2)cc1)C(C)C [Compound 205]
14 | 50 to 10000 | Cc1ccccc1NC(=O)Nc1ccc(CC(=O)NC(CC(C)C)C(=O)NC(CC(=O)O)C(=O)NC(C(=O)O)c2ccccc2)cc1 (stereo not drawn) [Compound 207]
15 | < 50 | CC(C)C[C@H](NC(=O)Cc1ccc(NC(=O)Nc2ccccc2)cc1)C(=O)N[C@@H](CC(=O)O)C(=O)N[C@H](C(=O)N1CCC[C@H]1C(N)=O)C(C)C [Compound 208] ({NHPh-CO}-[X1]LDVP-NH2)
16 | 50 to 10000 | CC(C)C[C@@H](NC(=O)Cc1ccc(NC(=O)Nc2ccccc2)cc1)C(=O)N[C@@H](CC(=O)O)C(=O)N[C@H](C(=O)N1CCC[C@H]1C(N)=O)C(C)C [Compound 209] ({NHPh-CO}-[X1][dL]DVP-NH2)
17 | 50 to 10000 | CC(C)C[C@H](NC(=O)Cc1ccc(NC(=O)Nc2ccccc2)cc1)C(=O)N[C@H](CC(=O)O)C(=O)N[C@H](C(=O)N1CCC[C@H]1C(N)=O)C(C)C [Compound 210] ({NHPh-CO}-[X1]L[dD]VP-NH2)
18 | 50 to 10000 | CC(C)C[C@H](NC(=O)Cc1ccc(NC(=O)Nc2ccccc2)cc1)C(=O)N[C@@H](CC(=O)O)C(=O)N[C@@H](C(=O)N1CCC[C@H]1C(N)=O)C(C)C [Compound 211] ({NHPh-CO}-[X1]LD[dV]P-NH2)

Row | IC50 [nM] | SMILES
19 | 50 to 10000 | CC(C)C[C@@H](NC(=O)Cc1ccc(NC(=O)Nc2ccccc2)cc1)C(=O)N[C@H](CC(=O)O)C(=O)N[C@@H](C(=O)N1CCC[C@@H]1C(N)=O)C(C)C [Compound 212] ({NHPh-CO}-[X1][dL][dD][dV][dP]-NH2)
20 | < 50 | CSCC[C@H](NC(=O)Cc1ccc(NC(=O)Nc2ccccc2C)cc1)C(=O)N[C@@H](CC(=O)O)C(=O)N[C@@H](CC(=O)O)C(N)=O [Compound 219]
21 | < 50 | CSCC[C@H](NC(=O)Cc1ccc(NC(=O)Nc2ccccc2C)cc1)C(=O)N[C@@H](CC(=O)O)C(=O)N[C@@H](CC(C)C)C(N)=O [Compound 220]
22 | < 50 | CSCC[C@H](NC(=O)Cc1ccc(NC(=O)Nc2ccccc2C)cc1)C(=O)N[C@@H](CC(=O)O)C(=O)N[C@H](C(N)=O)C(C)C [Compound 221]
23 | < 50 | CSCC[C@H](NC(=O)Cc1ccc(NC(=O)Nc2ccccc2C)cc1)C(=O)N[C@@H](CC(=O)O)C(=O)N[C@H](CC(C)C)C(N)=O [Compound 222]
24 | < 50 | CSCC[C@H](NC(=O)Cc1ccc(NC(=O)Nc2ccccc2C)cc1)C(=O)N[C@@H](CC(=O)O)C(=O)N[C@@H](CCC(=O)O)C(N)=O [Compound 223]
25 | < 50 | CSCC[C@H](NC(=O)Cc1ccc(NC(=O)Nc2ccccc2C)cc1)C(=O)N[C@@H](CC(=O)O)C(=O)N[C@H](C(N)=O)[C@@H](C)O [Compound 224]
26 | < 50 | CSCC[C@H](NC(=O)Cc1ccc(NC(=O)Nc2ccccc2C)cc1)C(=O)N[C@@H](CC(=O)O)C(=O)N[C@H](CC(N)=O)C(N)=O [Compound 226]
27 | < 50 | CSCC[C@H](NC(=O)Cc1ccc(NC(=O)Nc2ccccc2C)cc1)C(=O)N[C@@H](CC(=O)O)C(=O)N[C@H](CCC(=O)O)C(N)=O [Compound 227]
28 | < 50 | CSCC[C@H](NC(=O)Cc1ccc(NC(=O)Nc2ccccc2C)cc1)C(=O)N[C@@H](CC(=O)O)C(=O)N[C@@H](Cc1c[nH]c2ccccc12)C(N)=O [Compound 228]
29 | < 50 | CSCC[C@H](NC(=O)Cc1ccc(NC(=O)Nc2ccccc2C)cc1)C(=O)N[C@@H](CC(=O)O)C(=O)N[C@H](CO)C(N)=O [Compound 229]
30 | < 50 | Cc1ccccc1NC(=O)Nc1ccc(CC(=O)N[C@@H](CC(C)C)C(=O)N[C@@H](CC(=O)O)C(=O)N[C@@H](CC(=O)O)C(N)=O)cc1 [Compound 230]
31 | < 50 | Cc1ccccc1NC(=O)Nc1ccc(CC(=O)N[C@@H](CC(C)C)C(=O)N[C@@H](CC(=O)O)C(=O)N[C@@H](CC(C)C)C(N)=O)cc1 [Compound 231]
32 | < 50 | Cc1ccccc1NC(=O)Nc1ccc(CC(=O)N[C@@H](CC(C)C)C(=O)N[C@@H](CC(=O)O)C(=O)N[C@H](C(N)=O)C(C)C)cc1 [Compound 232]
33 | < 50 | Cc1ccccc1NC(=O)Nc1ccc(CC(=O)N[C@@H](CC(C)C)C(=O)N[C@@H](CC(=O)O)C(=O)N[C@H](CC(C)C)C(N)=O)cc1 [Compound 233]
34 | < 50 | Cc1ccccc1NC(=O)Nc1ccc(CC(=O)N[C@@H](CC(C)C)C(=O)N[C@@H](CC(=O)O)C(=O)N[C@@H](CCC(=O)O)C(N)=O)cc1 [Compound 234]
35 | < 50 | Cc1ccccc1NC(=O)Nc1ccc(CC(=O)N[C@@H](CC(C)C)C(=O)N[C@@H](CC(=O)O)C(=O)N[C@H](C(N)=O)[C@@H](C)O)cc1 [Compound 235]
36 | < 50 | CSCC[C@H](NC(=O)[C@H](CC(=O)O)NC(=O)[C@H](CC(C)C)NC(=O)Cc1ccc(NC(=O)Nc2ccccc2C)cc1)C(N)=O [Compound 236]
